Measurements: US5972953A, “Brain cell protective agent” (priority 1993, dated 1999)

Each compound was assayed on cultured nerve cells (cerebral cortex) (assay: cells). Conditions: Rattus norvegicus, Cerebral cortex neuron, 24 h, read-out: ED50.
Assay type: cell-based, Wistar rat

Compared with `CN(C(=O)/C=C/c1cccc(OC(F)(F)F)c1)[C@@H]1CC[C@@]2(O)[C@H]3Cc4ccc(O)c5c4[C@@]2(CCN3CC2CC2)[C@H]1O5` [Compound 120, 17-cyclopropylmethyl-3,14β-dihydroxy-4,5α-epoxy-6β-(N-methyl-3-trifluoromethoxycinnamamido)morphinan], `CC(=O)Oc1ccc2c3c1O[C@H]1[C@H](N(C)C(=O)/C=C/c4ccccc4)CC[C@@]4(O)[C@@H](C2)N(CC2CC2)CC[C@]314` [Compound 114, 17-cyclopropylmethyl-3-acetoxy-14β-hydroxy-4,5α-epoxy-6β-(N-methylcinnamamido)morphinan] is 57-fold higher in EC50: 1060 nM for the first, 60300 nM for the second.

Same assay, conditions: Rattus norvegicus, Cerebral cortex neuron; 10 mM glutamate, 24 hours at 37° C., LDH leakage; read-out: ED50 (the source's name)

First: CCCCCN(C(=O)CCCCCc1ccccc1)[C@@H]1CC[C@@]2(O)[C@H]3Cc4ccc(O)c5c4[C@@]2(CCN3CC2CC2)[C@H]1O5 [Compound 70, 17-cyclopropylmethyl-3,14β-dihydroxy-4,5α-epoxy-6β-(N-pentyl-6-phenylhexanoamido)morphinan]
Second: CC(C)CN(C(=O)CCCCCCCc1ccccc1)[C@@H]1CC[C@@]2(O)[C@H]3Cc4ccc(O)c5c4[C@@]2(CCN3CC2CC2)[C@H]1O5 [Compound 59, 17-cyclopropylmethyl-3,14β-dihydroxy-4,5α-epoxy-6β-(N-isobutyl-8-phenyloctanoamido) morphinan]
The EC50 of the first is 2.5-fold lower: 190 nM for the first, 480 nM for the second. The first is the more potent here.

First: O=C(Cc1ccc(Cl)c(Cl)c1)N[C@H]1CC[C@@]2(O)[C@H]3Cc4ccc(O)c5c4[C@@]2(CCN3CC2CC2)[C@H]1O5 [Compound 36, 17-cyclopropylmethyl-3,14β-dihydroxy-4,5α-epoxy-6α-(3,4-dichlorophenylacetoamido) morphinan]
Second: CC(C)CN(C(=O)Cc1ccc(Cl)c(Cl)c1)[C@@H]1CC[C@@]2(O)[C@H]3Cc4ccc(O)c5c4[C@@]2(CCN3CC2CC2)[C@H]1O5 [Compound 39, 17-cyclopropylmethyl-3,14β-dihydroxy-4,5α-epoxy-6β-(N-isobutyl-3,4-dichlorophenylacetoamido)morphinan]
The EC50 of the first is 2.6-fold higher: 1010 nM for the first, 390 nM for the second. The second is the more potent here.

Going from `Oc1ccc2c3c1O[C@H]1[C@H](N(Cc4ccccc4)CC4CCCCC4)CC[C@@]4(O)[C@@H](C2)N(CC2CC2)CC[C@]314` [Compound 11, 17-cyclopropylmethyl-3,14β-dihydroxy-4,5α-epoxy-6β-[N-(cyclohexylmethyl)benzylamino]morphinan] to `CC(C)CN(Cc1ccccc1)[C@@H]1CC[C@@]2(O)[C@H]3Cc4ccc(O)c5c4[C@@]2(CCN3CC2CC2)[C@H]1O5` [Compound 7, 17-cyclopropylmethyl-3,14β-dihydroxy-4,5α-epoxy-6β-(N-isobutylbenzylamino)morphinan], the EC50 rises from 170 nM to 320 nM (1.9-fold).

First: CN(C(=O)/C=C/c1ccoc1)[C@@H]1CC[C@@]2(O)[C@H]3Cc4ccc(O)c5c4[C@@]2(CCN3CC2CC2)[C@H]1O5 (relative stereo) [Compound 43, 17-cyclopropylmethyl-3,14β-dihydroxy-4,5α-epoxy-6β-[N-methyl-trans-3-(3-furyl)acrylamido]morphinan]
Second: CN(C(=O)/C=C/c1ccco1)[C@@H]1CC[C@@]2(O)[C@H]3Cc4ccc(O)c5c4[C@@]2(CCN3CC2CC2)[C@H]1O5 (relative stereo) [Compound 53, 17-cyclopropylmethyl-3,14β-dihydroxy-4,5α-epoxy-6β-[N-methyl-trans-3-(2-furyl)acrylamido]morphinan]
The EC50 of the first is 1.8-fold higher: 32600 nM for the first, 18200 nM for the second. The second is the more potent here.

`O=C(CCc1ccccc1)O[C@H]1CC[C@@]2(O)[C@H]3Cc4ccc(O)c5c4[C@@]2(CCN3CC2CC2)[C@H]1O5` [Compound 113, 17-cyclopropylmethyl-3,14β-dihydroxy-4,5α-epoxy-6α-(3-phenylpropionyloxy)morphinanan] and `CN(C(=O)OCc1ccccc1)[C@H]1CC[C@@]2(O)[C@H]3Cc4ccc(O)c5c4[C@@]2(CCN3CC2CC2)[C@H]1O5` [Compound 99, 17-cyclopropylmethyl-3,14β-dihydroxy-4,5α-epoxy-6α-(N-methylbenzyloxycarbamido)morphinan] are within 1.5-fold of each other in EC50: 530 nM for the first, 400 nM for the second.

First: CN(C(=O)c1ccc2ccccc2c1)[C@@H]1CC[C@@]2(O)[C@H]3Cc4ccc(O)c5c4[C@@]2(CCN3CC2CC2)[C@H]1O5 [Compound 52, 17-cyclopropylmethyl-3,14β-dihydroxy-4,5α-epoxy-6β-(N-methyl-2-naphthamido)morphinan]
Second: CN(C(=O)NCc1ccccc1)[C@H]1CC[C@@]2(O)[C@H]3Cc4ccc(O)c5c4[C@@]2(CCN3CC2CC2)[C@H]1O5 [Compound 104, 17-Cyclopropylmethyl-3,14β-dihydroxy-4,5α-epoxy-6α-(N-methyl-N'-benzylureido)morphinan]
The EC50 of the first is 2.6-fold higher: 1490 nM for the first, 580 nM for the second.

Going from `CCCCCC(=O)N(C)[C@@H]1CC[C@@]2(O)[C@H]3Cc4ccc(O)c5c4[C@@]2(CCN3CC2CC2)[C@H]1O5` [Compound 49, 17-cyclopropylmethyl-3,14β-dihydroxy-4,5α-epoxy-6β-(N-methylhexanoamido)morphinan] to `CCCCOC(=O)N(C)[C@@H]1CC[C@@]2(O)[C@H]3Cc4ccc(O)c5c4[C@@]2(CCN3CC2CC2)[C@H]1O5` [Compound 48, 17-cyclopropylmethyl-3,14β-dihydroxy-4,5α-epoxy-6β-(N-methylbutyroxycarbamido)morphinan], the EC50 falls from 29900 nM to 7040 nM (4.2-fold).

Going from `CN(C(=O)Cc1c(F)c(F)c(F)c(F)c1F)[C@@H]1CC[C@@]2(O)[C@H]3Cc4ccc(O)c5c4[C@@]2(CCN3CC2CC2)[C@H]1O5` [Compound 89, 17-cyclopropylmethyl-3,14β-dihydroxy-4,5α-epoxy-6β-(N-methyl-2,3,4,5,6-pentafluorophenylacetoamido)morphinan] to `CCC/C=C/C(=O)N(C)[C@@H]1CC[C@@]2(O)[C@H]3Cc4ccc(O)c5c4[C@@]2(CCN3CC2CC2)[C@H]1O5` [Compound 75, 17-cyclopropylmethyl-3,14β-dihydroxy-4,5α-epoxy-6β-(N-methyl-trans-2-hexenoamido)morphinan], the EC50 rises from 6280 nM to 16500 nM (2.6-fold).

First: CN(C(=S)NCc1ccccc1)[C@@H]1CC[C@@]2(O)[C@H]3Cc4ccc(O)c5c4[C@@]2(CCN3CC2CC2)[C@H]1O5 [Compound 106, 17-cyclopropylmethyl-3,14β-dihydroxy-4,5α-epoxy-6β-(N-methyl-N'-benzylthioureido)morphinan]
Second: CN(C(=S)NCc1ccccc1)[C@H]1CC[C@@]2(O)[C@H]3Cc4ccc(O)c5c4[C@@]2(CCN3CC2CC2)[C@H]1O5 [Compound 105, 17-cyclopropylmethyl-3,14β-dihydroxy-4,5α-epoxy-6α-(N-methyl-N'-benzylthioureido)morphinan]
The EC50 of the first is 1.9-fold lower: 10900 nM for the first, 20600 nM for the second. The first is the more potent here.

Going from `CCCCCN(Cc1ccccc1)[C@@H]1CC[C@@]2(O)[C@H]3Cc4ccc(O)c5c4[C@@]2(CCN3CC2CC2)[C@H]1O5` [Compound 9, 17-cyclopropylmethyl-3,14β-dihydroxy-4,5α-epoxy-6β-(N-pentylbenzylamino)morphinan] to `CC(C)N(Cc1ccccc1)[C@@H]1CC[C@@]2(O)[C@H]3Cc4ccc(O)c5c4[C@@]2(CCN3CC2CC2)[C@H]1O5` [Compound 6, 17-cyclopropylmethyl-3,14β-dihydroxy-4,5α-epoxy-6β-(N-isopropylbenzylamino)morphinan], the EC50 rises from 290 nM to 1930 nM (6.7-fold). The first is the more potent here.

First: C=CCN1CC[C@]23c4c5ccc(O)c4O[C@H]2[C@H](N(C)C(=O)Cc2ccc(Cl)c(Cl)c2)CC[C@@]3(O)[C@H]1C5 [Compound 93, 17-allyl-3,14β-dihydroxy-4,5α-epoxy-6β-(N-methyl-3,4-dichlorophenylacetoamido)morphinan]
Second: COc1cccc(/C=C/C(=O)N(C)[C@@H]2CC[C@@]3(O)[C@H]4Cc5ccc(O)c6c5[C@@]3(CCN4CC3CC3)[C@H]2O6)c1 [Compound 50, 17-cyclopropylmethyl-3,14β-dihydroxy-4,5α-epoxy-6β-(N-methyl-3-methoxycinnamamido)morphinan]
The EC50 of the first is 2.3-fold lower: 1500 nM for the first, 3440 nM for the second.

First: CC(C)CN(C(=O)CCCCCc1ccccc1)[C@H]1CC[C@@]2(O)[C@H]3Cc4ccc(O)c5c4[C@@]2(CCN3CC2CC2)[C@H]1O5 [Compound 37, 17-cyclopropylmethyl-3,14β-dihydroxy-4,5α-epoxy-6α-(N-isobutyl-6-phenylhexanoamido)morphinan]
Second: CC(C)CN(C(=O)CCCCCc1ccccc1)[C@@H]1CC[C@@]2(O)[C@H]3Cc4ccc(O)c5c4[C@@]2(CCN3CC2CC2)[C@H]1O5 [Compound 58, 17-cyclopropylmethyl-3,14β-dihydroxy-4,5α-epoxy-6β-(N-isobutyl-6-phenylhexanoamido)morphinan]
The EC50 of the first is 1.7-fold lower: 60 nM for the first, 100 nM for the second. The first is the more potent here.

Going from `CC(C)N(C(=O)/C=C/c1cccc(C(F)(F)F)c1)[C@@H]1CC[C@@]2(O)[C@H]3Cc4ccc(O)c5c4[C@@]2(CCN3CC2CC2)[C@H]1O5` [Compound 64, 17-cyclopropylmethyl-3,14β-dihydroxy-4,5α-epoxy-6β-(N-isopropyl-3-trifluoromethylcinnamamido)morphinan] to `CCN(C(=O)/C=C/c1cccc(C(F)(F)F)c1)[C@@H]1CC[C@@]2(O)[C@H]3Cc4ccc(O)c5c4[C@@]2(CCN3CC2CC2)[C@H]1O5` [Compound 63, 17-cyclopropylmethyl-3,14β-dihydroxy-4,5α-epoxy-6β-(N-ethyl-3-trifluoromethylcinnamarido)morphinan], the EC50 rises from 690 nM to 1250 nM (1.8-fold).

Going from `O=C(/C=C/c1cccc(C(F)(F)F)c1)N(CCc1ccccc1)[C@@H]1CC[C@@]2(O)[C@H]3Cc4ccc(O)c5c4[C@@]2(CCN3CC2CC2)[C@H]1O5` [Compound 67, 17-cyclopropylmethyl-3,14β-dihydroxy-4,5α-epoxy-6β-[N-(2-phenethyl)-3-trifluoromethylcinnamamido]morphinan] to `CN(C(=O)/C=C/c1ccccc1)[C@@H]1CC[C@@]2(O)[C@H]3Cc4ccc(O)c5c4[C@@]2(CCN3CC2CC2)[C@H]1O5` [Compound 76, 17-cyclopropylmethyl-3,14β-dihydroxy-4,5α-epoxy-6β-(N-methylcinnamamido)morphinan], the EC50 rises from 100 nM to 6790 nM (68-fold).

`O=C(/C=C/c1ccoc1)S[C@@H]1CC[C@@]2(O)[C@H]3Cc4ccc(O)c5c4[C@@]2(CCN3CC2CC2)[C@H]1O5` (relative stereo) [Compound 119, 17-cyclopropylmethyl-4,5α-epoxy-3,14β-dihydroxy-6β-[trans-3-(3-furyl)acryloylthio]morphinan] gave an EC50 of 1470 nM.
